Measured values taken from patent US9597326B2 (priority 2010, dated 2017).

Columns and labels:
[1] = test system: cytokines (IFN-γ, IL-10, IL-12 p40, IL-1β, IL-5, IL-6, MCP-1, KC, TNF-α); assay type: in vivo, mice; details: IP; peak concentration over 24 h; FIG. 6
human TLR7 = human TLR7 (Homo sapiens (Human), UniProt Q9NYK1); assay type: cell-based; details: HEK293 reporter; relative to resiquimod set to 100%
Sequence of human TLR7 (Q9NYK1 27-1049 limits assumed): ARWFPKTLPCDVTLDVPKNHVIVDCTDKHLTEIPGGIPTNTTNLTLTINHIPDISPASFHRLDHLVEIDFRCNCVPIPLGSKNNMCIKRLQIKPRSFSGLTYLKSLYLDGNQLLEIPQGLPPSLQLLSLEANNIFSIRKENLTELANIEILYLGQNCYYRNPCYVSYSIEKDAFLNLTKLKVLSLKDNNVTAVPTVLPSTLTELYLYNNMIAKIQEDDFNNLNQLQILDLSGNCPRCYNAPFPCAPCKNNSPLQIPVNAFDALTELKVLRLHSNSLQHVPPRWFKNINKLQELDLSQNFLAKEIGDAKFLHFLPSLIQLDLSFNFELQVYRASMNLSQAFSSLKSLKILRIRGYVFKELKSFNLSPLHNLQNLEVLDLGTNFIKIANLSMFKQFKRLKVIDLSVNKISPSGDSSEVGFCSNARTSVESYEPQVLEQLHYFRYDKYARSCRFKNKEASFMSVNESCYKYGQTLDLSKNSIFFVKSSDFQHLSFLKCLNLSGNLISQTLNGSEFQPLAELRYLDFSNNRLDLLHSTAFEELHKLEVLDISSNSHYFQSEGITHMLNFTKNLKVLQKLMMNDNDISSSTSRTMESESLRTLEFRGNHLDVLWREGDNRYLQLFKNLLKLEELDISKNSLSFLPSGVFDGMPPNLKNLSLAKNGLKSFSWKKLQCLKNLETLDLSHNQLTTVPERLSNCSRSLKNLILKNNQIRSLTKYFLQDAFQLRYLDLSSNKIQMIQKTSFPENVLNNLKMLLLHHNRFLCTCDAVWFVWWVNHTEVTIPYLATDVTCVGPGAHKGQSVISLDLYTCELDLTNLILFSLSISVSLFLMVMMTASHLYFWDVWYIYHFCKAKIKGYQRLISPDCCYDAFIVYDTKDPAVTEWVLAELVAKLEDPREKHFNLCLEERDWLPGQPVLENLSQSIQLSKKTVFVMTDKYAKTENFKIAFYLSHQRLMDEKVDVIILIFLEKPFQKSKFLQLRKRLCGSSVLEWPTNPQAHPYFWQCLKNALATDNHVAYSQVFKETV

COc1ccc(CCc2cnc3c(N)nc4cc(C)ccc4c3c2)c(C)c1 [SMIP 28, 2-(4-methoxy-2-methylphenethyl)-8-methylbenzo[f][1,7]naphthyridin-5-amine]
cytokine induction of IL-1β compared to R-848 [1]: significantly greater cytokine induction of IL-1β | cytokine induction of IL-5 compared to peanut oil-control [1]: Neither administration of SMIP 28 nor R-848, compared to peanut oil-control, resulted in a cytokine induction of IL-5 | cytokines induced compared to peanut oil-control [1]: cytokine induction of IFN-γ, IL-12 p40, IL-1β, IL-6, MCP-1, mKC, and TNF-α

CCOCc1nc2c(N)nc3ccccc3c2n1CC(C)(C)O [R-848, resiquimod, reference compound]
cytokine induction of IL-5 compared to peanut oil-control [1]: Neither administration of SMIP 28 nor R-848, compared to peanut oil-control, resulted in a cytokine induction of IL-5 | cytokines induced compared to peanut oil-control [1]: cytokine induction of IFN-γ, IL-10, IL-12 p40, IL-6, MCP-1, mKC, and TNF-α

COc1ccc(CCc2cnc3c(N)nc4cc(C(C)(P(=O)(O)O)P(=O)(O)O)ccc4c3c2)c(C)c1 [Compound 19]
EC50 (human TLR7): 23800 nM
